The record followed here is ChEMBL document CHEMBL1128110, “Enantiodifferentiation of dihydropyridine PAF antagonists” (Bioorg Med Chem Lett, 1995).

One may read the ED50 as the dose at which the effect has come halfway, by size or by number of responders. In general, half-life refers to the time in which the quantity being followed falls by half. Low readings indicate fast loss, high ones slow loss. A word on the bioavailability: it is the share of a dose that reaches the circulation, judged against a reference dose that is usually intravenous. By IC50 is commonly meant the midpoint of a concentration-inhibition curve.

The test system of one data set is Mus sp. Nature of the data set: In vivo for PAF antagonist activity in mice after oral administration. Type of data set: functional.
Data set [1] is described as follows: Plasma half life was evaluated in Dog. Type of data set: ADME, organism-based, Canis lupus familiaris.
A short description of data set [2]: Oral bioavailability in dog. As to conditions: in vivo. Type of data set: ADME, organism-based, Canis lupus familiaris.
The nature of data set [3]: Half life was evaluated in dog. In kind it is ADME, organism-based, Canis lupus familiaris. The note with it: in vivo.
Data set [4] in a line: Inhibition of [3H]nitrendipine binding to dihydropyridine sites of bovine frontal cortex membranes. In kind it is tissue-based, Bos taurus.
The next data set is filed under the species Rattus norvegicus. The experiment in a line: Calcium channel blocking activity in K+ stimulated rat aorta assay. In kind it is functional.
Data set [5] can be described thus: Plasma half life was evaluated. Type of data set: ADME, organism-based, Canis lupus familiaris. As to conditions: dog.
The nature of data set [6]: Plasma half life was evaluated in dog. In kind it is ADME, organism-based, Canis lupus familiaris.

On to `CCO/C(O)=C1\C(COCCn2c(C)nc3ccccc32)=NC(C)=C(C(=O)Nc2ccccn2)C1c1ccccc1Cl` (stereo unspecified), for which the median effective dose (ED50) in the data set on Mus sp. (Mus sp., po, read-out: ED50) is 49 mg/kg. In turn, `CCO/C(O)=C1\C(COCCn2c(C)nc3ccccc32)=NC(C)=C(C(=O)NC(C)(C)C)C1c1ccccc1Cl` (stereo unspecified) showed a half-life in data set [1] of 1.2 h. Also, the bioavailability in data set [2] stood at 30%. Moreover, the ED50 in the data set on Mus sp. (Mus sp., po, read-out: ED50) amounted to 34 mg/kg. In the case of `CCO/C(O)=C1\C(COCCn2c(C)nc(C)c2C)=NC(C)=C(C(=O)Nc2cccc(C)n2)C1c1ccccc1Cl` (stereo unspecified), the half-life in data set [3] was 4.4 h. This compound also registered a bioavailability in data set [2] of 9%. Also, in the data set on Mus sp. (Mus sp., po, read-out: ED50), the ED50 came out at 4.5 mg/kg. As for `CCO/C(O)=C1\C(COCCn2c(C)nc(C)c2C)=NC(C)=C(C(=O)OC)[C@@H]1c1ccccc1Cl`, the figures for the IC50 (in data set [4]; in the data set listed under Rattus norvegicus) were 41 nM and 12 nM, respectively.

Consider `CCO/C(O)=C1\C(COCCn2c(C)nc(C)c2C)=NC(C)=C(C(=O)NC(C)(C)C)C1c1ccccc1Cl` (stereo unspecified), for which the ED50 in the data set on Mus sp. (Mus sp., po, read-out: ED50) is 10.1 mg/kg. Compound `CCO/C(O)=C1\C(COCCn2c(C)nc3cnccc32)=NC(C)=C(C(=O)Nc2ccccn2)C1c1ccccc1Cl` (stereo unspecified) showed a half-life in data set [5] of 0.75 h. This compound had a bioavailability in data set [2] of 4%. The ED50 with Mus sp. (Mus sp., po, read-out: ED50) came to 2 mg/kg. On to `CCO/C(O)=C1\C(COCCn2c(C)nc3cccnc32)=NC(C)=C(C(=O)Nc2ccccn2)C1c1ccccc1Cl` (stereo unspecified), for which the ED50 in the data set with Mus sp. (Mus sp., po, read-out: ED50) is 25 mg/kg. `CCO/C(O)=C1\C(COCCn2c(C)nc(C)c2C)=NC(C)=C(C(=O)OC)[C@H]1c1ccccc1Cl`: the IC50 was above 10000 nM in data set [4] and above 1000 nM in the data set filed under Rattus norvegicus. As for `CCO/C(O)=C1\C(COCCn2c(C)nc3ccncc32)=NC(C)=C(C(=O)Nc2ccccn2)C1c1ccccc1Cl` (stereo unspecified), the ED50 with Mus sp. (Mus sp., po, read-out: ED50) stood at 29 mg/kg. Regarding `CCO/C(O)=C1\C(COCCn2c(C)nc3ncccc32)=NC(C)=C(C(=O)Nc2ccccn2)C1c1ccccc1Cl` (stereo unspecified), the ED50 with Mus sp. (Mus sp., po, read-out: ED50) was determined as 31 mg/kg.

Consider `CCO/C(O)=C1\C(COCCn2c(C)nc(C)c2C)=NC(C)=C(C(=O)Nc2ccccc2)C1c1ccccc1Cl` (stereo unspecified), for which, in the data set with Mus sp. (Mus sp., po, read-out: ED50), the ED50 turned out to be 18 mg/kg. For the compound `CCO/C(O)=C1\C(COCCn2c(C)nc(C)c2C)=NC(C)=C(C(=O)OC)C1c1ccccc1Cl` (stereo unspecified), the IC50 was 96 nM in data set [4] and 14 nM in the data set filed under Rattus norvegicus.

Regarding `CCOC(=O)C1=C(c2ccc(-n3c(C)nc4cnccc43)cc2)NC(C)=C(C(=O)Nc2ccccn2)C1c1ccccc1Cl` (single isomer, unassigned; (+)), in the data set with Mus sp., the ED50 came to 0.15 mg/kg. Still for that read-out and setting: the same measure for `CCOC(=O)C1=C(c2ccc(-n3c(C)nc4cnccc43)cc2)NC(C)=C(C(=O)Nc2ccccn2)C1c1ccccc1Cl` (single isomer, unassigned; (-)): 3.8 mg/kg. In data set [6], `CCOC(=O)C1=C(c2ccc(-n3c(C)nc4cnccc43)cc2)NC(C)=C(C(=O)Nc2ccccn2)C1c1ccccc1Cl` (stereo in doubt; 18) showed a half-life of 1.2 h. The same compound yielded a bioavailability in data set [2] of 100%. For the same compound, the ED50 in the data set with Mus sp. was found to be 0.26 mg/kg.
